Measured values: PubChem BioAssay (NCI)
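Interpolation was linear, between the two tested concentrations surrounding the appropriate level; five concentrations were tested over 48 hours in 96-well plates. At the TGI there is no net growth.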

How the values were obtained:
Experiment in all cases: growth of human tumour cells (NCI), 48 h
786-0 renal = test system: 786-0 renal
A498 renal = test system: A498 renal
A549 NSCLC = test system: A549 NSCLC
ACHN renal = test system: ACHN renal
BT-549 breast = test system: BT-549 breast
CAKI-1 renal = test system: CAKI-1 renal
CCRF-CEM leukemia = test system: CCRF-CEM leukemia
COLO 205 colon = test system: COLO 205 colon
HCC-2998 colon = test system: HCC-2998 colon
HCT-116 colon = test system: HCT-116 colon
HCT-15 colon = test system: HCT-15 colon
HOP-62 NSCLC = test system: HOP-62 NSCLC
IGROV1 ovarian = test system: IGROV1 ovarian
K-562 leukemia = test system: K-562 leukemia
KM12 colon = test system: KM12 colon
LOX IMVI melanoma = test system: LOX IMVI melanoma
M14 melanoma = test system: M14 melanoma
MALME-3M melanoma = test system: MALME-3M melanoma
MCF7 breast = test system: MCF7 breast
MDA-MB-231 breast = test system: MDA-MB-231 breast
MDA-MB-435 = test system: MDA-MB-435
MDA-N = test system: MDA-N
MOLT-4 leukemia = test system: MOLT-4 leukemia
NCI-H226 lung = test system: NCI-H226 lung
NCI-H23 lung = test system: NCI-H23 lung
NCI-H460 lung = test system: NCI-H460 lung
NCI-H522 lung = test system: NCI-H522 lung
NCI/ADR-RES ovarian = test system: NCI/ADR-RES ovarian
OVCAR-3 ovarian = test system: OVCAR-3 ovarian
OVCAR-4 ovarian = test system: OVCAR-4 ovarian
OVCAR-5 ovarian = test system: OVCAR-5 ovarian
OVCAR-8 ovarian = test system: OVCAR-8 ovarian
PC-3 prostate = test system: PC-3 prostate
RXF 393 renal = test system: RXF 393 renal
SF-268 CNS = test system: SF-268 CNS
SF-295 CNS = test system: SF-295 CNS
SF-539 CNS = test system: SF-539 CNS
SK-MEL-2 melanoma = test system: SK-MEL-2 melanoma
SK-MEL-28 melanoma = test system: SK-MEL-28 melanoma
SK-MEL-5 melanoma = test system: SK-MEL-5 melanoma
SK-OV-3 ovarian = test system: SK-OV-3 ovarian
SN12C renal = test system: SN12C renal
SNB-19 CNS = test system: SNB-19 CNS
SNB-75 CNS = test system: SNB-75 CNS
SW-620 colon = test system: SW-620 colon
T-47D breast = test system: T-47D breast
TK-10 renal = test system: TK-10 renal
U251 CNS = test system: U251 CNS
UACC-257 melanoma = test system: UACC-257 melanoma
UO-31 renal = test system: UO-31 renal
DU-145 prostate = test system: DU-145 prostate
EKVX NSCLC = test system: EKVX NSCLC
HL-60(TB) leukemia = test system: HL-60(TB) leukemia
HOP-92 NSCLC = test system: HOP-92 NSCLC
HS 578T breast = test system: HS 578T breast
HT29 colon = test system: HT29 colon
RPMI-8226 leukemia = test system: RPMI-8226 leukemia
UACC-62 melanoma = test system: UACC-62 melanoma

Compound `N#Cc1c(-c2ccccc2)c(CN2CCCCC2)c(=O)n2c1[nH]c1ccccc12` has a TGI (786-0 renal) of 95.6 µM, a TGI (A498 renal) of over 100 µM and a TGI (A549 NSCLC) of over 100 µM. It also gave a TGI (ACHN renal) of over 100 µM, a TGI (BT-549 breast) of over 100 µM and a TGI (CAKI-1 renal) of over 100 µM. For the same compound, the TGI (CCRF-CEM leukemia) was over 100 µM, the TGI (COLO 205 colon) was 64 µM and the TGI (HCC-2998 colon) was over 100 µM. The TGI (HCT-116 colon) was over 100 µM, the TGI (HCT-15 colon) was over 100 µM and the TGI (HOP-62 NSCLC) was 91.5 µM. For the same compound, the TGI (IGROV1 ovarian) was over 100 µM, the TGI (K-562 leukemia) was 60.9 µM and the TGI (KM12 colon) was over 100 µM. For the same compound, the TGI (LOX IMVI melanoma) was 50.8 µM, the TGI (M14 melanoma) was over 100 µM and the TGI (MALME-3M melanoma) was over 100 µM. For the same compound, the TGI (MCF7 breast) was over 100 µM, the TGI (MDA-MB-231 breast) was over 100 µM and the TGI (MDA-MB-435) was over 100 µM. The TGI (MDA-N) was over 100 µM, the TGI (MOLT-4 leukemia) was 45.4 µM and the TGI (NCI-H226 lung) was over 100 µM. The TGI (NCI-H23 lung) was over 100 µM, the TGI (NCI-H460 lung) was over 100 µM and the TGI (NCI-H522 lung) was 61.7 µM. It also gave a TGI (NCI/ADR-RES ovarian) of over 100 µM, a TGI (OVCAR-3 ovarian) of 58.3 µM and a TGI (OVCAR-4 ovarian) of over 100 µM. The TGI (OVCAR-5 ovarian) was over 100 µM, the TGI (OVCAR-8 ovarian) was over 100 µM and the TGI (PC-3 prostate) was over 100 µM. The TGI (RXF 393 renal) was over 100 µM, the TGI (SF-268 CNS) was over 100 µM and the TGI (SF-295 CNS) was over 100 µM. It also gave a TGI (SF-539 CNS) of over 100 µM, a TGI (SK-MEL-2 melanoma) of over 100 µM and a TGI (SK-MEL-28 melanoma) of over 100 µM. It also gave a TGI (SK-MEL-5 melanoma) of 34.1 µM, a TGI (SK-OV-3 ovarian) of over 100 µM and a TGI (SN12C renal) of over 100 µM. For the same compound, the TGI (SNB-19 CNS) was over 100 µM, the TGI (SNB-75 CNS) was over 100 µM and the TGI (SW-620 colon) was over 100 µM. The TGI (T-47D breast) was over 100 µM, the TGI (TK-10 renal) was over 100 µM and the TGI (U251 CNS) was over 100 µM. The TGI (UACC-257 melanoma) was over 100 µM and the TGI (UO-31 renal) was over 100 µM.

In the case of `O=C(c1ccc(Cl)cc1)N(C(=S)OCCOc1ccccc1)c1ccccc1`, the TGI (786-0 renal) is reported as 40.1 µM, the TGI (A498 renal) is reported as 48 µM and the TGI (A549 NSCLC) is reported as 39.3 µM. It also gave a TGI (ACHN renal) of 47.9 µM, a TGI (BT-549 breast) of 52.3 µM and a TGI (CAKI-1 renal) of 41.2 µM. It also gave a TGI (CCRF-CEM leukemia) of 42.7 µM, a TGI (COLO 205 colon) of 37.1 µM and a TGI (DU-145 prostate) of 31.7 µM. It also gave a TGI (EKVX NSCLC) of 48.6 µM, a TGI (HCC-2998 colon) of 35.2 µM and a TGI (HCT-116 colon) of 30.9 µM. For the same compound, the TGI (HCT-15 colon) was 42.2 µM, the TGI (HL-60(TB) leukemia) was 38.6 µM and the TGI (HOP-62 NSCLC) was 54 µM. For the same compound, the TGI (HOP-92 NSCLC) was 30.7 µM, the TGI (HS 578T breast) was over 100 µM and the TGI (HT29 colon) was 35.6 µM. The TGI (IGROV1 ovarian) was 38.1 µM, the TGI (K-562 leukemia) was over 100 µM and the TGI (KM12 colon) was 39.4 µM. The TGI (LOX IMVI melanoma) was 36.1 µM, the TGI (M14 melanoma) was 32.4 µM and the TGI (MALME-3M melanoma) was 70.7 µM. It also gave a TGI (MCF7 breast) of 32.4 µM, a TGI (MDA-MB-231 breast) of 75.6 µM and a TGI (MDA-MB-435) of 30.7 µM. For the same compound, the TGI (MDA-N) was 33.3 µM, the TGI (MOLT-4 leukemia) was 59.8 µM and the TGI (NCI-H23 lung) was 36.2 µM. For the same compound, the TGI (NCI-H460 lung) was 62.7 µM, the TGI (NCI-H522 lung) was 43.7 µM and the TGI (NCI/ADR-RES ovarian) was 76.3 µM. The TGI (OVCAR-3 ovarian) was 30.9 µM, the TGI (OVCAR-4 ovarian) was 40.8 µM and the TGI (OVCAR-5 ovarian) was 36.4 µM. It also gave a TGI (OVCAR-8 ovarian) of 48.3 µM, a TGI (PC-3 prostate) of 56.7 µM and a TGI (RPMI-8226 leukemia) of 44.1 µM. It also gave a TGI (RXF 393 renal) of 39.3 µM, a TGI (SF-268 CNS) of 60.4 µM and a TGI (SF-295 CNS) of 94 µM. The TGI (SF-539 CNS) was 34 µM, the TGI (SK-MEL-2 melanoma) was 45.7 µM and the TGI (SK-MEL-28 melanoma) was 34.9 µM. The TGI (SK-OV-3 ovarian) was over 100 µM, the TGI (SN12C renal) was 39.3 µM and the TGI (SNB-19 CNS) was 42.8 µM. The TGI (SW-620 colon) was 41.2 µM, the TGI (T-47D breast) was 56.5 µM and the TGI (TK-10 renal) was over 100 µM. The TGI (U251 CNS) was 29.7 µM, the TGI (UACC-257 melanoma) was 39.5 µM and the TGI (UACC-62 melanoma) was 35.1 µM. It also gave a TGI (UO-31 renal) of 3.12 µM.
